Measured values: PubChem BioAssay (NCI)
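Dose response: 5 concentrations. Exposure: 48 h. Format: 96-well plates. Endpoint: linear interpolation; highest concentration if not reached. Here, GI50 denotes the concentration required for 50% inhibition of growth. TGI: concentration producing complete growth inhibition.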

Key:
Assay in all cases: NCI tumour cell line growth inhibition, 48 h
[1] = tested on: 786-0 renal
[2] = tested on: A549 NSCLC
[3] = tested on: CAKI-1 renal
[4] = tested on: CCRF-CEM leukemia
[5] = tested on: COLO 205 colon
[6] = tested on: DU-145 prostate
[7] = tested on: EKVX NSCLC
[8] = tested on: HCC-2998 colon
[9] = tested on: HCT-15 colon
[10] = tested on: HL-60(TB) leukemia
[11] = tested on: HOP-62 NSCLC
[12] = tested on: HT29 colon
[13] = tested on: IGROV1 ovarian
[14] = tested on: K-562 leukemia
[15] = tested on: KM12 colon
[16] = tested on: LOX IMVI melanoma
[17] = tested on: M14 melanoma
[18] = tested on: MALME-3M melanoma
[19] = tested on: MCF7 breast
[20] = tested on: MDA-MB-231 breast
[21] = tested on: MDA-N
[22] = tested on: MOLT-4 leukemia
[23] = tested on: NCI-H23 lung
[24] = tested on: OVCAR-8 ovarian
[25] = tested on: PC-3 prostate
[26] = tested on: RPMI-8226 leukemia
[27] = tested on: RXF 393 renal
[28] = tested on: SF-268 CNS
[29] = tested on: SF-295 CNS
[30] = tested on: SK-MEL-28 melanoma
[31] = tested on: SK-MEL-5 melanoma
[32] = tested on: SK-OV-3 ovarian
[33] = tested on: SN12C renal
[34] = tested on: SNB-75 CNS
[35] = tested on: SR leukemia
[36] = tested on: SW-620 colon
[37] = tested on: T-47D breast
[38] = tested on: TK-10 renal
[39] = tested on: UACC-257 melanoma
[40] = tested on: UACC-62 melanoma
[41] = tested on: A498 renal
[42] = tested on: ACHN renal
[43] = tested on: BT-549 breast
[44] = tested on: HCT-116 colon
[45] = tested on: HOP-92 NSCLC
[46] = tested on: HS 578T breast
[47] = tested on: MDA-MB-435
[48] = tested on: NCI-H226 lung
[49] = tested on: NCI-H460 lung
[50] = tested on: NCI-H522 lung
[51] = tested on: OVCAR-3 ovarian
[52] = tested on: OVCAR-4 ovarian
[53] = tested on: OVCAR-5 ovarian
[54] = tested on: SF-539 CNS
[55] = tested on: SK-MEL-2 melanoma
[56] = tested on: SNB-19 CNS
[57] = tested on: U251 CNS
[58] = tested on: UO-31 renal
[59] = tested on: NCI/ADR-RES ovarian

## CCOc1ccc(-c2nc(-c3oc4ccccc4c(=O)c3OC(C)=O)cs2)cc1
[1]
  TGI: > 10 µM
[2]
  TGI: > 10 µM
[3]
  TGI: > 10 µM
[4]
  TGI: > 10 µM
[5]
  TGI: > 10 µM
[6]
  TGI: > 10 µM
[7]
  TGI: > 10 µM
[8]
  TGI: > 10 µM
[9]
  TGI: > 10 µM
[10]
  TGI: > 10 µM
[11]
  TGI: > 10 µM
[12]
  TGI: > 10 µM
[13]
  TGI: > 10 µM
[14]
  TGI: > 10 µM
[15]
  TGI: > 10 µM
[16]
  TGI: > 10 µM
[17]
  TGI: > 10 µM
[18]
  TGI: > 10 µM
[19]
  TGI: > 10 µM
[20]
  TGI: > 10 µM
[21]
  TGI: > 10 µM
[22]
  TGI: > 10 µM
[23]
  TGI: > 10 µM
[24]
  TGI: > 10 µM
[25]
  TGI: > 10 µM
[26]
  TGI: > 10 µM
[27]
  TGI: 7.21 µM
[28]
  TGI: > 10 µM
[29]
  TGI: > 10 µM
[30]
  TGI: > 10 µM
[31]
  TGI: > 10 µM
[32]
  TGI: > 10 µM
[33]
  TGI: > 10 µM
[34]
  TGI: > 10 µM
[35]
  TGI: > 10 µM
[36]
  TGI: > 10 µM
[37]
  TGI: > 10 µM
[38]
  TGI: > 10 µM
[39]
  TGI: > 10 µM
[40]
  TGI: > 10 µM

## C=C1C(=O)O[C@H]2/C=C(/C)C3=CC(=O)[C@@](C)(C[C@@H](OC(=O)/C(C)=C\C)C12)O3 (stereo not given in full)
[1]
  TGI: 2.22 µM
[41]
  TGI: > 41.4 µM
[2]
  TGI: 17.8 µM
[42]
  TGI: 0.958 µM
[43]
  TGI: 3.11 µM
[3]
  TGI: 0.432 µM
[6]
  TGI: 8.99 µM
[7]
  TGI: 6.23 µM
[8]
  TGI: 3.28 µM
[44]
  TGI: 1.11 µM
[9]
  TGI: 1.45 µM
[11]
  TGI: > 100 µM
[45]
  TGI: 2.07 µM
[46]
  TGI: 57.1 µM
[12]
  TGI: 1.21 µM
[13]
  TGI: 4.97 µM
[14]
  TGI: 1.84 µM
[15]
  TGI: 9.5 µM
[16]
  TGI: 1.14 µM
[17]
  TGI: > 28.8 µM
[20]
  TGI: 11.5 µM
[47]
  TGI: 6.02 µM
[21]
  TGI: 6.24 µM
[22]
  TGI: 6.01 µM
[48]
  TGI: 11.1 µM
[23]
  TGI: 10.3 µM
[49]
  TGI: 11.8 µM
[50]
  TGI: 0.605 µM
[51]
  GI50: 1.24 µM
  TGI: 5.04 µM
[52]
  TGI: > 26.5 µM
[53]
  TGI: 6.19 µM
[24]
  TGI: 3.94 µM
[25]
  TGI: 8.78 µM
[27]
  TGI: 1.5 µM
[28]
  TGI: > 46.5 µM
[29]
  TGI: 29.3 µM
[54]
  TGI: 8.22 µM
[55]
  TGI: 16.6 µM
[31]
  TGI: > 35.3 µM
[32]
  TGI: 26 µM
[33]
  TGI: 3.37 µM
[56]
  TGI: 29.7 µM
[34]
  TGI: 23.9 µM
[38]
  TGI: 1.6 µM
[57]
  TGI: 9.48 µM
[39]
  TGI: 5.69 µM
[40]
  TGI: 3.36 µM
[58]
  TGI: 3.56 µM

## O=C(Cc1ccccc1)NN1C(=O)/C(=C\c2cccc(O)c2)SC1=Nc1ccccc1
[1]
  TGI: > 100 µM
[41]
  TGI: > 100 µM
[2]
  TGI: > 100 µM
[42]
  TGI: > 100 µM
[5]
  TGI: > 100 µM
[6]
  TGI: > 100 µM
[7]
  TGI: > 100 µM
[8]
  TGI: > 100 µM
[44]
  TGI: > 100 µM
[9]
  TGI: > 100 µM
[11]
  TGI: > 100 µM
[46]
  TGI: > 100 µM
[12]
  TGI: > 100 µM
[13]
  TGI: > 100 µM
[15]
  TGI: > 100 µM
[17]
  TGI: > 100 µM
[19]
  TGI: > 100 µM
[20]
  TGI: > 100 µM
[47]
  TGI: > 100 µM
[21]
  TGI: > 100 µM
[48]
  TGI: > 100 µM
[23]
  TGI: > 100 µM
[49]
  TGI: > 100 µM
[59]
  TGI: > 100 µM
[51]
  TGI: > 100 µM
[52]
  TGI: > 100 µM
[53]
  TGI: > 100 µM
[24]
  TGI: > 100 µM
[27]
  TGI: > 100 µM
[28]
  TGI: > 100 µM
[29]
  TGI: > 100 µM
[54]
  TGI: > 100 µM
[55]
  TGI: > 100 µM
[30]
  TGI: > 100 µM
[31]
  TGI: > 100 µM
[32]
  TGI: > 100 µM
[33]
  TGI: > 100 µM
[56]
  TGI: > 100 µM
[34]
  TGI: > 100 µM
[36]
  TGI: > 100 µM
[37]
  TGI: > 100 µM
[38]
  TGI: > 100 µM
[57]
  TGI: > 100 µM
[39]
  TGI: > 100 µM
[40]
  TGI: > 100 µM
[58]
  TGI: > 100 µM
